In this assay the target is T1, ΔF508-CFTR (Homo sapiens, UniProt P13569, DEL508-508).
T1 construct: expressed in transfected cells
Briefly: Membrane potential optical assay of ΔF508-CFTR modulation (Table 3 EC50; the table does not name the assay). Type of assay: cell-based. From the text: Membrane Potential Optical Methods for Assaying ΔF508-CFTR Modulation Properties of Compounds
The optical membrane potential assay utilized voltage-sensitive FRET sensors described by Gonzalez and Tsien (See, Gonzalez, J. E. and R. Y. Tsien (1995) “Voltage sensing by fluorescence resonance energy transfer in single cells” Biophys J 69(4): 1272-80, and Gonzalez, J. E. and R. Y. Tsien (1997) “Improved indicators of cell membrane potential that use fluorescence resonance energy transfer” Chem Biol 4(4): 269-77) in combination with instrumentation for measuring fluorescence changes such as the Voltage/Ion Probe Reader (VIPR) (See, Gonzalez, J. E., K. Oades, et al. (1999) “Cell-based assays and instrumentation for screening ion-channel targets” Drug Discov Today 4(9): 431-439).
These voltage sensitive assays are based on the change in fluorescence resonant energy transfer (FRET) between the membrane-soluble, voltage-sensitive dye, DiSBAC2(3), and a fluorescent phospholipid, CC2-DMPE, which is attached to the outer leaflet of the plasma membrane and acts as a FRET donor. Changes in membrane potential (Vm) cause the negatively charged DiSBAC2(3) to redistribute across the plasma membrane and the amount of energy transfer from CC2-DMPE changes accordingly. The changes in fluorescence emission were monitored using VIPR II, which is an integrated liquid handler and fluorescent detector designed to conduct cell-based screens in 96- or 384-well microtiter plates.
Identification of Correction Compounds
To identify small molecules that correct the trafficking defect associated with ΔF508-CFTR; a single-addition HTS assay format was developed. The cells were incubated in serum-free medium for 16 hrs at 37° C. in the presence or absence (negative control) of test compound. As a positive control, cells plated in 384-well plates were incubated for 16 hrs at 27° C. to “temperature-correct” ΔF508-CFTR. The cells were subsequently rinsed 3× with Krebs Ringers solution and loaded with the voltage-sensitive dyes. To activate ΔF508-CFTR, 10 μM forskolin and the CFTR potentiator, genistein (20 μM), were added along with Cl^−-free medium to each well. The addition of Cl^−-free medium promoted Cl^− efflux in response to ΔF508-CFTR activation and the resulting membrane depolarization was optically monitored using the FRET-based voltage-sensor dyes.
Identification of Potentiator Compounds
To identify potentiators of ΔF508-CFTR, a double-addition HTS assay format was developed. During the first addition, a Cl^−-free medium with or without test compound was added to each well. After 22 sec, a second addition of Cl^−-free medium containing 2-10 μM forskolin was added to activate ΔF508-CFTR. The extracellular Cl^− concentration following both additions was 28 mM, which promoted Cl^− efflux in response to ΔF508-CFTR activation and the resulting membrane depolarization was optically monitored using the FRET-based voltage-sensor dyes. Solutions
NIH3T3 mouse fibroblasts stably expressing ΔF508-CFTR are used for optical measurements of membrane potential. The cells are maintained at 37° C. in 5% CO2 and 90% humidity in Dulbecco's modified Eagle's medium supplemented with 2 mM glutamine, 10% fetal bovine serum, 1×NEAA, […]-ME, 1× pen/strep, and 25 mM HEPES in 175 cm^2 culture flasks. For all optical assays, the cells were seeded at 30,000/well in 384-well matrigel-coated plates and cultured for 2 hrs at 37° C. before culturing at 27° C. for 24 hrs. for the potentiator assay. For the correction assays, the cells are cultured at 27° C. or 37° C. with and without compounds for 16-24 hours

This note sets out measurements from patent publication US8314256B2, “Modulators of ATP-binding cassette transporters” (Vertex Pharmaceuticals Incorporated, priority 2005, dated 2012).

As usually defined, the EC50 is the concentration at which the effect is half-maximal.

T1 sequence (P13569 with tags, fused parts or gaps DEL508-508): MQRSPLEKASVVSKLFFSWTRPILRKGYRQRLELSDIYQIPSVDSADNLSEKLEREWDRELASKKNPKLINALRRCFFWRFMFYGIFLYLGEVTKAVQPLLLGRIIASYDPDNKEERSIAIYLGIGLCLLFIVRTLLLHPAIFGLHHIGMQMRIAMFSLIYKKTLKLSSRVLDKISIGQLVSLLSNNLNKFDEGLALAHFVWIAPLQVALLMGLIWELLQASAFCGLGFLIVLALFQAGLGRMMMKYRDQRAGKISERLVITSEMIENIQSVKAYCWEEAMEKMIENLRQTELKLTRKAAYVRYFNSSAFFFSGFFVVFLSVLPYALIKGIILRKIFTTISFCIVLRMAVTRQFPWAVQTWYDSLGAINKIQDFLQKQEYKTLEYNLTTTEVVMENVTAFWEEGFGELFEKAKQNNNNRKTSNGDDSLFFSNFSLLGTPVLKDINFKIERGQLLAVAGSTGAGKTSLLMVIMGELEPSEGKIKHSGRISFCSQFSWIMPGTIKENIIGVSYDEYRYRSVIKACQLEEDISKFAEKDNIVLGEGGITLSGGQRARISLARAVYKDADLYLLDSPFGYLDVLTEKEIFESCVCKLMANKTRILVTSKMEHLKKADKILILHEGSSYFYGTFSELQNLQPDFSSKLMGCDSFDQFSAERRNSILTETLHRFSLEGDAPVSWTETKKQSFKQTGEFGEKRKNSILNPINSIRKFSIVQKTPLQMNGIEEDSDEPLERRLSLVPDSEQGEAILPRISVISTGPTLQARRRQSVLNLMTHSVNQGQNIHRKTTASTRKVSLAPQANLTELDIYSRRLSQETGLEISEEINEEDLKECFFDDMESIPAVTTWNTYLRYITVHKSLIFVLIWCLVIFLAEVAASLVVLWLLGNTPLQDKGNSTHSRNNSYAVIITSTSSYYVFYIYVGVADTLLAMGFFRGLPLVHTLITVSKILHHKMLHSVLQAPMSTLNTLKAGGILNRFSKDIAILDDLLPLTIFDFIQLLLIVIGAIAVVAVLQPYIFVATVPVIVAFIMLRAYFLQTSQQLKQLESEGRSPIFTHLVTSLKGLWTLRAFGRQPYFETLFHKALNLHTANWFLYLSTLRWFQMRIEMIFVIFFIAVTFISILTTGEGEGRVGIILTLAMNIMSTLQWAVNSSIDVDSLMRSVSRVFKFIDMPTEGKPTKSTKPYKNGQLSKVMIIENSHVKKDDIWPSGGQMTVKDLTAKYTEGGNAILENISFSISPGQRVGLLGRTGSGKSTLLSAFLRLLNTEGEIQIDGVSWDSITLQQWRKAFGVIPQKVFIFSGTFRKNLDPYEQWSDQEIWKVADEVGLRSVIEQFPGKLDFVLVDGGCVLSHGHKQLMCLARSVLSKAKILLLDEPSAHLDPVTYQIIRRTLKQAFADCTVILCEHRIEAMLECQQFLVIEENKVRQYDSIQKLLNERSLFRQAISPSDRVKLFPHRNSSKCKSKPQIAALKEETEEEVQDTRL

For `O=C(C(=O)N(Cc1ccccc1)Cc1ccccc1)c1c[nH]c2ccccc12` [Compound 5, N,N-Dibenzyl-2-(1H-indol-3-yl)-2-oxo-acetamide], the EC50 was less than 1000 nM. `CC(=O)Nc1ccc(OCCCNC(=O)C(=O)c2c[nH]c3ccc(Br)cc23)cc1` [Compound 8]: the EC50 was in the range of 1000 to 5000 nM.

Take `Cn1cc(C(=O)C(=O)NCCc2ccccc2)c2ccccc21` [Compound 10, 2-(1-Methyl-1H-indol-3-yl)-2-oxo-N-phenethyl-acetamide]: the EC50 is more than 5000 nM. Regarding `O=C(NC(CN1CCOCC1)c1ccccc1)C(=O)c1c[nH]c2ccccc12` (centres unmarked) [Compound 4], the EC50 was more than 5000 nM.

Turning to `Cn1cc(C(=O)C(=O)NCc2ccccc2)c2ccccc21` [Compound 9], the EC50 was more than 5000 nM. In the case of `COc1ccccc1N1CCN(C(=O)C(=O)c2c[nH]c3ccc(Br)cc23)CC1` [Compound 7], the EC50 lay in the range of 1000 to 5000 nM. Turning to `O=C(NC(CSCc1ccccc1)CSCc1ccccc1)C(=O)c1c[nH]c2ccccc12` [Compound 17], the EC50 lay within 1000 to 5000 nM. Then `O=C(NCCc1ccccc1)C(=O)c1c[nH]c2ccc(Br)cc12` [Compound 16], with less than 1000 nM; and `Cn1cc(C(=O)C(=O)N(Cc2ccccc2)Cc2ccccc2)c2ccccc21` [Compound 15, N,N-Dibenzyl-2-(1-methyl-1H-indol-3-yl)-2-oxo-acetamide], with 1000 to 5000 nM; and `COc1ccc(CCNC(=O)C(=O)c2c[nH]c3ccc(Br)cc23)cc1` [Compound 13], with 1000 to 5000 nM. Then `Cc1ccc(Cn2cc(SCCNC(=O)C(=O)c3c[nH]c4ccccc34)c3ccccc32)cc1` [Compound 3], with less than 1000 nM; and `O=C(NCc1ccccc1)C(=O)c1c[nH]c2ccccc12` [Compound 6], with less than 1000 nM; and `O=C(NC(c1ccccc1)c1ccccc1)C(=O)c1c[nH]c2ccccc12` [Compound 1, N-Benzhydryl-2-(1H-indol-3-yl)-2-oxo-acetamide], with less than 1000 nM.

Turning to `O=C(NCC(c1ccccc1)c1ccccc1)C(=O)c1c[nH]c2ccccc12` [Compound 18, N-(2,2-Diphenylethyl)-2-(1H-indol-3-yl)-2-oxo-acetamide], the EC50 was less than 1000 nM.

As for `CN(Cc1ccccc1)C(=O)C(=O)c1c[nH]c2ccccc12` [Compound 14, N-Benzyl-2-(1H-indol-3-yl)-N-methyl-2-oxo-acetamide], the EC50 was more than 5000 nM.

Consider `O=C(NCCc1ccccc1)C(=O)c1c[nH]c2ccccc12` [Compound 2, 2-(1H-Indol-3-yl)-2-oxo-N-phenethyl-acetamide], for which the EC50 is less than 1000 nM. Consider `Cn1cc(C(=O)C(=O)NC(c2ccccc2)c2ccccc2)c2ccccc21` [Compound 12, N-Benzhydryl-2-(1-methyl-1H-indol-3-yl)-2-oxo-acetamide], for which the EC50 is more than 5000 nM.
